According to paper PMC5460201, “Bacterial protease uses distinct thermodynamic signatures for substrate recognition” (Scientific Reports, 2017):
Peptide text beside a SMILES is read from it.

Legend:
[1] = molecular target: T1, PeDPP11 (PeDPP11_22-717 S652A) (Porphyromonas endodontalis, UniProt F8WQK8, S652A); assay: Isothermal titration calorimetry (ITC) of peptide binding to PeDPP11
T1 construct: genes encoding for C-terminal 6xHis-tagged PeDPP11_22-717 S652A and PgDPP11_22-720 S655A in the pET-22b(+) vector; 6xHis (C); made in house; host or cells: E. coli BL21(DE3)pLysS
Protocol: All experiments were carried out in 10 mM Hepes-NaOH pH 7.4, 100 mM NaCl. Both the enzymes and the peptides were dissolved in the same buffer. The bindings were analysed with a MicroCal^TM iTC200 microcalorimeter (GE Healthcare, Life Sciences) equilibrated at the respective temperature. […] Every injection was carried out over a period of 4 s with a spacing of 110 s between the injections. […] These corrected values were plotted against the ratio peptide vs. protein concentration in the cell to generate the binding isotherm. Nonlinear least-squares fitting using Origin version 7.0 (Microcal) was used to obtain the association constants (K a), heats of binding (ΔH) and stoichiometries. […] The reported values are averages of at least two independent measurements.

[2] = system: cAMP-dependent protein kinase A (PKA-C); conditions: NMR and molecular dynamics; ref [40]; cited from earlier work
Description: Due to experimental challenges, the role of conformational entropy in molecular recognition by proteins has begun to be elucidated only recently, mainly by nuclear magnetic resonance (NMR) relaxation methods. Using NMR techniques and molecular dynamics simulations, Veglia and colleagues observed in cAMP-dependent protein kinase A (PKA-C) a similar binding mode to that of DPP11. […] Conversely, binding of the inhibitor PKI5-24 (protein ki ...

[3] = molecular target: Porphyromonas endodontalis dipeptidyl peptidase 11, PeDPP11_(22-717) S652A (Porphyromonas endodontalis) (UniProt F8WQK8); assay: ITC; peptide injected into PeDPP11 in the cell; 10 mM Hepes-NaOH pH 7.4, 100 mM NaCl; 25 °C; one-site binding model
SEC-MALS = molecular target: the molecule itself; assay: SEC-MALS

`CC(C)C[C@H](N)C(=O)N[C@@H](CC(=O)O)C(=O)N[C@H](C(=O)N[C@@H](Cc1c[nH]c2ccccc12)C(=O)O)C(C)C` [LDVW, Leu-Asp-Val-Trp] (H-LDVW-OH) showed a Kd ([1]; 15 °C (288 K), 10 mM Hepes-NaOH pH 7.4, 100 mM NaCl, averages of at least two independent measurements) of 9000 ± 700 nM.

`CC(C)C[C@H](N)C(=O)N[C@@H](CC(=O)O)C(=O)O` [LD] (H-Leu-Asp-OH) showed a Kd ([1]; 10 °C (283 K), 10 mM Hepes-NaOH pH 7.4, 100 mM NaCl, 1.28 mM LD to 120 μM PeDPP11, averages of at least two independent measurements) of 500 ± 100 nM and a Kd ([1]; 20 °C (293 K), 10 mM Hepes-NaOH pH 7.4, 100 mM NaCl, averages of at least two independent measurements) of 1000 ± 300 nM.

For Arg-Asp [RD], the ΔH bind ([1]; 25 °C, 10 mM Hepes-NaOH pH 7.4, 100 mM NaCl, 600 μM LDVW to 60 μM, 810 μM LD to 75 μM, 1 mM LDL to 75 μM, 1.0 mM RD to 80 μM PeDPP11, averages of at least two independent measurements) was -3.7 kcal/mol, the “change in entropy on binding” value ([1]; 25 °C, due to water displacement caused by peptide binding and concomitant domain motion) was “favourable change in entropy” and the “thermodynamic signature of binding” value ([1]; 25 °C, pH 7.4) was “enthalpy-driven process”.

In the case of PKI5-24, the “effect on PKA-C protein dynamics” value [2] is given as “stabilizes the protein, quenching the enzyme dynamics” and the “thermodynamic signature of binding to PKA-C” value [2] is given as “enthalpically driven”.

In the case of “PLN1-20: substrate PLN1-20 (phospholamban) of PKA-C (MEKVQYLTRSAIRRASTIEM; UniProt P26678 1-20, looked up, fragment)”, the “effect on PKA-C protein dynamics” value [2] is listed as “increased conformational dynamics” and the “thermodynamic signature of binding to PKA-C” value [2] is listed as “entropically driven”.

dipeptide Arg-Asp gave a dH [3] of -3.7 kcal/mol.

Work on dipeptide LD yielded a dH [3] of -5.26 kcal/mol.

In the case of substrate peptide LDL, the dH [3] is reported as 4.06 kcal/mol.

substrate peptide Leu-Asp-Val-Trp gave a dH [3] of 5.69 kcal/mol.

B1: Porphyromonas endodontalis dipeptidyl peptidase 11, PeDPP11_(22-717) S652A (enzyme)
chain: DGGMWLMQQINGQVARMKSLGMQLEAADIYNPNGSSLKDAVVMFDGGCTGVLVSNQGLLLTNHHCGYDQIQKHSSVQHNYLKDGFWSYSLAEELVNPGLEVEIVDEITDVTAAVKKELERIKKPSGLEFLSPRYLSSLAPEIVGKKAASRPGYRYEIKAFYGGNRYYMFTKKVFRDVRLVAAPPSSIGKFGSDTDNWAWPRHTGDFSIFRLYADKNGNPAEYSKDNVPYRPKRWVKVNAQGVKEGDFALIMGYPGTTYKFFTADEVTEWSEIDNNIRIEMRGILQDVMLREMLADPKINIMYAAKYASSQNGYKRAQGANWAIRRRSLREIKLAQQQEVLAWAKQKGIATTEEAVRAISKAIEGRQDLRMRQRYLLEGILMGIEMSNAPAADSDIADHWDDPARREAGLQSIRKQFEAFFNKDYSPEVEKDQLAIALLTRYAERIPAEKQPISIREGIAEYGSAKAYVEMIFDKSIYASRERFEEFMKNPDRDRLLRDPMSRFAASVAYEHQKLAKEVAAFDAPLAAAQRSYVASVLDMKGQPNLAPDANLTLRFTYGEIKGYQPRDVVTYGAKSTLEGVMEKEDPNNWEYVVDPKLKALYEAKNYGRYANSDGSMPVNFCATTHTTGGNAGSPVMNARGELIGLNFDRNWEGVGGDIEYLPNYQRSIILDIRYLLFIIDKFAGCQRLIDEIQPQF
notes: also called PeDPP11_(altconf); source: E. coli BL21(DE3)pLysS, purified (HisTrap, SEC)
In the case of B1, the “stoichiometry N” value (SEC-MALS) is reported as 2.
